Reference: US10717735B2, “Solid forms of a compound for modulating kinases” (Plexxikon Inc., priority 2017, dated 2020)
In brackets after ≈: the same amount, converted by molar mass. Read-outs that look alike come from different tables or passages of the source.

Tests used:
[1] = tested on: adaptive transfer model of Eμ-TCL1; assay: Adaptive transfer model of Eμ-TCL1, treatment at leukemia onset; assay type: in vivo, wild type mice; settings: 20 mg/kg, qd
Procedure: (§1) FIG. 24 panels D-G: using an adaptive transfer model of Eμ-TCL1, recipient wild type mice were randomized to receive vehicle (n=12) or Compound I Free Acid Amorphous (20 mg/kg, qd, oral gavage, n=10) at leukemia onset and disease progression was measured by flow cytometry as % CD19/CD5/CD45 positive PBL. Treatment was ended at 150 days. FIG. 24D is a Kaplan-Meier curve showing overall survival (OS) (p<0.0001), with the median OS for Compound I Free Acid Amorphous and the vehicle being 93 days and 34 days, respectively. Survival comparisons for FIG. 24D were made with the log-rank test, and p-values were adjusted for multiple comparisons. Compound I Free Acid Amorphous decreased the percentage of circulating leukemic PBL (FIG. 24E), and reduced spleen mass (FIG. 24F).
as §1, with “Using” for “FIG. 24 panels D-G: using”

[2] = tested on: Eμ-TCL1 leukemic splenocytes; assay: Survival of mice engrafted with Eμ-TCL1 leukemic splenocytes, comparison with Ibrutinib; assay type: in vivo, C57BL/6 mice; settings: 20 mg/kg, qd; for median overall survival (OS): oral gavage at leukemia onset, vehicle 21 days (FIG. 24H)
Procedure: FIG. 24H is a Kaplan-Meier curve showing overall survival for C57BL/6 mice engrafted with Eμ-TCL1 leukemic splenocytes treated with Ibrutinib or Compound I Free Acid Amorphous (20 mg/kg, qd, oral gavage) at leukemia onset, where the median OS is: 41 days (Compound I Free Acid Amorphous, n=7), 32 days (Ibrutinib, n=8) and 21 days (vehicle, n=7). […] Survival comparisons for FIG. 24H were made with the log-rank test, and p-values were adjusted for multiple comparisons.
FIG. 24H is a Kaplan-Meier curve showing overall survival (OS) for C57BL/6 mice engrafted with Eμ-TCL1 leukemic splenocytes treated with Ibrutinib or Compound I Free Acid Amorphous (Cmpd. I FAA) (20 mg/kg, qd, oral gavage) at leukemia onset. Survival comparisons for FIG. 24H were made with the log-rank test, and p-values were adjusted for multiple comparisons.
Ibrutinib is currently the standard of care (first-in-line) treatment.

[3] = tested on: Eμ-TCL1 with advanced leukemia; assay: Pharmacodynamic evaluation of antitumor effects in Eμ-TCL1 with advanced leukemia; assay type: in vivo, Mice; settings: 20 mg/kg, qd, oral gavage, 8 days
Procedure: FIG. 24 panels A-C illustrate data related to the pharmacodynamic evaluation of antitumor effects of Compound I Free Acid Amorphous in Eμ-TCL1 with advanced leukemia. Mice were stratified according to leukemic peripheral blood lymphocytes (PBLs) and spleen palpation score to receive either vehicle or Compound I Free Acid Amorphous (20 mg/kg, qd, oral gavage) for 8 days. […] FIG. 24C is a representative immunoblot analysis of relative protein levels of cMYC, P21, BTK, IKZF1, IKZF3 and TCL1A protein at the end of the 8 day study. […] Mice were stratified according to leukemic peripheral blood lymphocytes (PBLs) and spleen palpation score to receive either vehicle or Compound I Free Acid Amorphous (20 mg/kg, qd, oral gavage) for 8 days. […] FIG. 24C is a representative immunoblot analysis of relative protein levels of cMYC, P21, BTK, IKZF1, IKZF3 and TCL1A protein at the end of the 8 day study.

[4] = Solubility estimates by solvent aliquot addition, visual observation; assay type: physicochemical
Procedure: Aliquots of various solvents were added to measured amounts of Compound I or forms of Compound I as described herein with agitation (typically sonication) at ambient temperature until complete dissolution was achieved, as judged by visual observation. Solubilities were calculated based on the total solvent used to give a solution; actual solubilities may be greater because of the volume of solvent portions utilized or a slow rate of dissolution. […] If dissolution occurred at the first aliquot the value was reported as “>”.

[5] = tested on: pre-clinical models of CLL; settings: in vitro and in vivo; cited from earlier work
uveal melanoma (UM) = settings: mouse xenograft models of uveal melanoma; cited from earlier work
[6] = Dynamic vapor sorption (DVS); assay type: physicochemical; settings: from about 5% to about 95% RH
Procedure: Dynamic Vapor […] DVS data were collected on a VTI SGA-100 Vapor Sorption Analyzer. NaCl and PVP were used as calibration standards. Samples were not dried prior to analysis. Adsorption and desorption data were collected over a range from 5 to 95% RH at 10% RH increments under a nitrogen purge. The equilibrium criterion used for analysis was less than 0.0100% weight change in 5 minutes with a maximum equilibration time of 3 hours. Data were not corrected for the initial moisture content of the samples.

[7] = methanol (MeOH), ambient temperature

In the case of `Cc1noc(C)c1-c1cnc2c(-c3ccc(C(=O)O)cc3)cn([C@@H](C)c3ccccn3)c2c1` [Compound I Free Acid Amorphous, 4-(6-(3,5-dimethylisoxazol-4-yl)-1-[(1S)-1-(2-pyridyl)ethyl]pyrrolo[3,2-b]pyridin-3-yl)benzoic acid], the spleen mass ([1]; oral gavage (FIG. 24F)) was “reduced”, the “HE staining of spleen, lung and blood: lymphocytes” value ([1]; oral gavage (FIG. 24G)) was “depleted of lymphocytes” and the “Ki67 staining of spleen, lung and blood” value ([1]; oral gavage (FIG. 24G)) was “mostly absent”. The “median overall survival (OS)” value ([1]; oral gavage at leukemia onset, vehicle 34 days, p<0.0001 (FIG. 24D)) was 93 days, the “percentage of circulating leukemic PBL” value ([1]; oral gavage, % CD19/CD5/CD45 positive PBL by flow cytometry (FIG. 24E)) was “decreased” and the “median overall survival (OS)” value [2] was 41 days. For the same compound, the “survival compared with vehicle (p=0.024) and Ibrutinib (p=0.049)” value ([2]; oral gavage, log-rank test) was “significantly increased survival”, the “leukemic cells in systemic circulation” value ([3]; vs vehicle (FIG. 24A)) was “reduced” and the “leukemic cells locally in spleen” value ([3]; vs vehicle (FIG. 24B)) was “reduced”.

In the case of `Cc1noc(C)c1-c1cnc2c(-c3ccc(C(=O)O)cc3)cn([C@@H](C)c3ccccn3)c2c1` [Compound I Form D, 4-(6-(3,5-dimethylisoxazol-4-yl)-1-[(1S)-1-(2-pyridyl)ethyl]pyrrolo[3,2-b]pyridin-3-yl)benzoic acid], the “solubility” value ([4]; acetone, ambient temperature) was 4000 µg/mL (≈ 9.12 mM), the “solubility” value ([4]; acetonitrile (ACN), ambient temperature) was <3000 µg/mL and the solubility ([4]; chloroform, organic solvent or mixture, thermodynamic from solid, chloroform, ambient temperature, read-out: Solubility) was > 59000 µg/mL. For the same compound, the “solubility” value ([4]; dichloromethane (DCM), ambient temperature) was 24000 µg/mL (≈ 54.7 mM), the solubility ([4]; diethyl ether, organic solvent or mixture, thermodynamic from solid, diethyl ether, ambient temperature, read-out: Solubility) was < 2000 µg/mL and the solubility ([4]; dioxane, organic solvent or mixture, thermodynamic from solid, dioxane, ambient temperature, read-out: Solubility) was < 2000 µg/mL. For the same compound, the solubility ([4]; ethanol, organic solvent or mixture, thermodynamic from solid, ethanol (EtOH), ambient temperature, read-out: Solubility) was 9000 µg/mL (≈ 20.5 mM), the solubility ([4]; ethyl acetate, organic solvent or mixture, thermodynamic from solid, ethyl acetate (EtOAc), ambient temperature, read-out: Solubility) was < 2000 µg/mL and the solubility ([4]; isopropyl alcohol, organic solvent or mixture, thermodynamic from solid, isopropyl alcohol (IPA), ambient temperature, read-out: Solubility) was 4000 µg/mL (≈ 9.12 mM). For the same compound, the “solubility” value [4, 7] was >72000 µg/mL, the solubility ([4]; tetrahydrofuran, organic solvent or mixture, thermodynamic from solid, tetrahydrofuran (THF), ambient temperature, read-out: Solubility) was 4000 µg/mL (≈ 9.12 mM) and the “solubility” value ([4]; toluene, ambient temperature) was <2000 µg/mL. For the same compound, the solubility ([4]; water, thermodynamic from solid, water, ambient temperature, read-out: Solubility) was 23000 µg/mL (≈ 52.5 mM).

For `Cc1noc(C)c1-c1cnc2c(-c3ccc(C(=O)O)cc3)cn([C@@H](C)c3ccccn3)c2c1` [Compound I, 4-(6-(3,5-dimethylisoxazol-4-yl)-1-[(1S)-1-(2-pyridyl)ethyl]pyrrolo[3,2-b]pyridin-3-yl) benzoic acid], the “efficacy relative to B-cell receptor (BCR) signaling agents” value [5] is given as “emulatesor exceeds the efficacy of B-cell receptor (BCR) signaling agents”, the solubility ([4]; acetone, organic solvent or mixture, thermodynamic from solid, Acetone, read-out: Solubility) is given as 3000 µg/mL (≈ 6.84 mM) and the solubility ([4]; acetonitrile, organic solvent or mixture, thermodynamic from solid, Acetonitrile, read-out: Solubility) is given as < 1000 µg/mL. The solubility ([4]; dichloromethane, organic solvent or mixture, thermodynamic from solid, Dichloromethane, read-out: Solubility) was < 1000 µg/mL, the solubility ([4]; dimethyl sulfoxide, organic solvent or mixture, thermodynamic from solid, Dimethyl sulfoxide, read-out: Solubility) was > 93000 µg/mL and the solubility ([4]; ethanol, organic solvent or mixture, thermodynamic from solid, Ethanol, read-out: Solubility) was < 1000 µg/mL. For the same compound, the solubility ([4]; ethyl acetate, organic solvent or mixture, thermodynamic from solid, Ethyl acetate, read-out: Solubility) was < 1000 µg/mL, the solubility ([4]; isopropanol, organic solvent or mixture, thermodynamic from solid, Isopropanol, read-out: Solubility) was < 1000 µg/mL and the solubility ([4]; methanol, organic solvent or mixture, thermodynamic from solid, Methanol, read-out: Solubility) was 1000 µg/mL (≈ 2.28 mM). For the same compound, the solubility ([4]; tetrahydrofuran, organic solvent or mixture, thermodynamic from solid, Tetrahydrofuran, read-out: Solubility) was 19000 µg/mL (≈ 43.3 mM), the solubility ([4]; water, thermodynamic from solid, Water, read-out: Solubility) was < 1000 µg/mL and the tumor growth (uveal melanoma (UM)) was “significantly inhibited tumor growth”.

With `Cc1noc(C)c1-c1cnc2c(-c3ccc(C(=O)O)cc3)cn([C@@H](C)c3ccccn3)c2c1` [Compound I Form A, 4-(6-(3,5-dimethylisoxazol-4-yl)-1-[(1S)-1-(2-pyridyl)ethyl]pyrrolo[3,2-b]pyridin-3-yl)benzoic acid] the “solubility” value ([4]; acetone, ambient temperature) was 36000 µg/mL (≈ 82.1 mM), the solubility ([4]; acetonitrile, organic solvent or mixture, thermodynamic from solid, acetonitrile (ACN), ambient temperature, read-out: Solubility) was 6000 µg/mL (≈ 13.7 mM) and the solubility ([4]; dichloromethane, organic solvent or mixture, thermodynamic from solid, dichloromethane (DCM), ambient temperature, read-out: Solubility) was 12000 µg/mL (≈ 27.4 mM). The “solubility” value [4, 7] was 6000 µg/mL (≈ 13.7 mM), the solubility ([4]; toluene, organic solvent or mixture, thermodynamic from solid, toluene, ambient temperature, read-out: Solubility) was < 4000 µg/mL and the DVS weight gain [6] was “about 0.8%”.

With `C=CC(=O)N1CCC[C@@H](n2nc(-c3ccc(Oc4ccccc4)cc3)c3c(N)ncnc32)C1` [Ibrutinib, reference compound] the “median overall survival (OS)” value [2] was 32 days.
